Laboratory results from patent US9113629B2, “4-amino-6-(4-substituted-phenyl)-picolinates and 6-amino-2-(4-substituted-phenyl)-pyrimidine-4-carboxylates and their use as herbicides” (DOW AGROSCIENCES LLC, priority 2013, dated 2015).
Like-named read-outs stand apart in the source and are kept apart here.

Experiments:
[1] = system: Key Broadleaf Weed and Crop Species; assay: Post-emergent Test II herbicidal activity (Table 5); type: in vivo; conditions: post-emergence, 336 h, post-emergent, 14 days after application; for pest or weed control at 70 g/ha: 70 g ai/ha; for pest or weed control at 140 g/ha: 140 g ai/ha
In short: (§1)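 Greenhouse-grown plants at first or second true leaf stage were sprayed post-emergence with compound in acetone/DMSO-based aqueous spray containing crop oil concentrate and surfactant, at 187 L/ha, highest rate plus ½× to 1/16× dilutions. After 14 d, injury was scored visually versus untreated plants, 0 (none) to 100% (complete kill).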

[2] = system: Key Grass and Sedge Weeds as well as Grass Crops; assay: Post-emergent Test II herbicidal activity (Table 6); type: in vivo; conditions: post-emergence, 336 h; for pest or weed control at 70 g/ha: application rate 70 g ai/ha; for pest or weed control at 140 g/ha: application rate 140 g ai/ha
In short: as §1

[3] = ABUTH: velvetleaf (Abutilon theophrasti), read-out: Visual Growth Reduction (%) 14 Days After Application ABUTH
[4] = AMARE: redroot pigweed (Amaranthus retroflexus), read-out: Visual Growth Reduction (%) 14 Days After Application AMARE
[5] = BRSNN: oilseed-rape, canola (Brassica napus), read-out: Visual Growth Reduction (%) 14 Days After Application BRSNN
[6] = CHEAL: lambsquarters (Chenopodium album), read-out: Visual Growth Reduction (%) 14 Days After Application CHEAL
[7] = EPHHL: wild poinsettia (Euphorbia heterophylla), read-out: Visual Growth Reduction (%) 14 Days After Application EPHHL
[8] = HELAN: sunflower (Helianthus annuus), read-out: Visual Growth Reduction (%) 14 Days After Application HELAN
[9] = VIOTR: wild pansy (Viola tricolor), read-out: Visual Growth Reduction (%) 14 Days After Application VIOTR
[10] = Triticum aestivum, TRZSS (wheat), read-out: Visual Growth Reduction (%) 14 Days After Application, TRZSS
[11] = CYPES: yellow nutsedge (Cyperus esculentus), read-out: Visual Growth Reduction (%) 14 Days After Application, CYPES
[12] = DIGSA: crabgrass (Digitaria sanguinalis), read-out: Visual Growth Reduction (%) 14 Days After Application, DIGSA
[13] = ECHCG: barnyardgrass (Echinochloa crus-galli), read-out: Visual Growth Reduction (%) 14 Days After Application, ECHCG
[14] = ORYSA: rice (Oryza sativa), read-out: Visual Growth Reduction (%) 14 Days After Application, ORYSA
[15] = SETFA: giant foxtail (Setaria faberi), read-out: Visual Growth Reduction (%) 14 Days After Application, SETFA
[16] = SORVU: grain sorghum (Sorghum vulgare), read-out: Visual Growth Reduction (%) 14 Days After Application, SORVU
[17] = ZEAMX: maize, corn (Zea mays), read-out: Visual Growth Reduction (%) 14 Days After Application, ZEAMX

SMILES | pest or weed control at 70 g/ha [1, 3] [%] | pest or weed control at 140 g/ha [1, 3] [%] | pest or weed control at 70 g/ha [1, 4] [%] | pest or weed control at 140 g/ha [1, 4] [%] | pest or weed control at 70 g/ha [1, 5] [%] | pest or weed control at 140 g/ha [1, 5] [%] | pest or weed control at 70 g/ha [1, 6] [%] | pest or weed control at 140 g/ha [1, 6] [%] | pest or weed control at 70 g/ha [1, 7] [%] | pest or weed control at 140 g/ha [1, 7] [%] | pest or weed control at 70 g/ha [1, 8] [%] | pest or weed control at 140 g/ha [1, 8] [%] | pest or weed control at 70 g/ha [1, 9] [%] | pest or weed control at 140 g/ha [1, 9] [%] | pest or weed control at 70 g/ha [2, 10] [%] | pest or weed control at 140 g/ha [2, 10] [%] | pest or weed control at 70 g/ha [2, 11] [%] | pest or weed control at 140 g/ha [2, 11] [%] | pest or weed control at 70 g/ha [2, 12] [%] | pest or weed control at 140 g/ha [2, 12] [%] | further results
C=Cc1c(C(=O)O)nc(-c2ccc(I)cc2)c(F)c1N [Compound 17] | 95 to 100 | 95 to 100 | 95 to 100 | 95 to 100 | 95 to 100 | 95 to 100 | 85 to 94 | 95 to 100 | 95 to 100 | 95 to 100 | 85 to 94 | 95 to 100 | 0 to 29 | 0 to 29 | 30 to 44 | 45 to 59 | 95 to 100 | 95 to 100 | 0 to 29 | 0 to 29 | pest or weed control at 70 g/ha [2, 13]: 75 to 84%; pest or weed control at 140 g/ha [2, 13]: 85 to 94%; pest or weed control at 70 g/ha [2, 14]: 60 to 74%; pest or weed control at 140 g/ha [2, 14]: 85 to 94%; pest or weed control at 70 g/ha [2, 15]: 0 to 29%; pest or weed control at 140 g/ha [2, 15]: 45 to 59%; pest or weed control at 70 g/ha [2, 16]: 85 to 94%; pest or weed control at 140 g/ha [2, 16]: 95 to 100%; pest or weed control at 70 g/ha [2, 17]: 60 to 74%; pest or weed control at 140 g/ha [2, 17]: 75 to 84%
Nc1c(Cl)c(C(=O)O)nc(-c2ccc(I)c(F)c2)c1Cl [Compound 145, 4-Amino-3,5-dichloro-6-(3-fluoro-4-iodophenyl)picolinic acid] | 45 to 59 | 60 to 74 | 75 to 84 | 95 to 100 | 95 to 100 | 95 to 100 | 95 to 100 | 95 to 100 | 60 to 74 | 60 to 74 | 95 to 100 | 95 to 100 | 0 to 29 | 0 to 29 | 60 to 74 | 60 to 74 | 45 to 59 | 45 to 59 | 85 to 94 | 85 to 94 | pest or weed control at 70 g/ha [2, 13]: 75 to 84%; pest or weed control at 140 g/ha [2, 13]: 75 to 84%; pest or weed control at 70 g/ha [2, 14]: 0 to 29%; pest or weed control at 140 g/ha [2, 14]: 0 to 29%; pest or weed control at 70 g/ha [2, 15]: 75 to 84%; pest or weed control at 140 g/ha [2, 15]: 75 to 84%; pest or weed control at 70 g/ha [2, 16]: 85 to 94%; pest or weed control at 140 g/ha [2, 16]: 85 to 94%; pest or weed control at 70 g/ha [2, 17]: 75 to 84%; pest or weed control at 140 g/ha [2, 17]: 75 to 84%
